Structures can show the parent of a compound that is named as a salt.
Tests used:
human EAAT2 = assay: EAAT2 protein levels in PA-EAAT2 cells by Western blot; format: cell-based; settings: PA-EAAT2 cells, 24 hr; for Fold increase for EAAT2 at indicated concentration (maximum activity): EAAT2 protein relative to DMSO; for concentration that reaches maximum activity: tested 0.0375-10 μM
Method: Compounds were evaluated in PA-EAAT2 cells, a primary astrocyte stably expressing human EAAT2 mRNAs (Kong et al., J Clin Invest. 2014:1255-67). Cells were treated with compound at 0.0375, 0.075, 0.15, 0.3, 0.6, 1.25, 2.5, 5, 10 μM for 24 hr and then harvested for measuring EAAT2 protein levels by Western blot analysis.

[1] = tested on: CA3-CA1 LTP in the hippocampus; assay: Long-term potentiation (LTP) in acute hippocampal slices of treated wild-type mice; format: in vivo; settings: 0.033, 0.33, and 3.3 mg/kg for seven days, vs vehicle
Method: Mice were treated with compound at 40 mg/kg (or as depicted) and forebrains were harvested for the gliosome preparation 24 hr (or as described) post-treatment. FIG. 2A: Western blots show dose-dependent increase of EAAT2 protein levels. FIG. 2B: Time-dependent fold increase in EAAT2 protein expression in response to compound treatment at 4 hours (1.54±0.13) and 24 hours (1.98±0.19) post-treatment. Quantification of EAAT2 expression time course (normalized to flotilin; n=4/group). Data represented as mean SEM and analyzed using one-way ANOVA with Tukey post-hoc test. *p<0.05, **p<0.01. FIG. 2C: Compound treatment enhances CA3-CA1 LTP in the hippocampus. Mice were treated with vehicle or compound for seven days and acute hippocampal sections were collected for LTP recordings. […] Data represented as mean SEM analyzed using one-way ANOVA with Bonferroni post-hoc tests. […]
At 24 hours post-treatment, mice were euthanized and forbrains were harvested. […] Acute hippocampal slices were then collected and assessed for changes in long-term potentiation (LTP).
Wild-type C57BL/6 mice (2-3 months old) were treated orally with compound 101 at 0.01, 0.033, 0.1, 0.33, 1, 3.33, 10, 20, 40, 60, and 100 mg/kg/day (voluntary ingestion of compound in honey) for seven or 28 days. […] Mice were then euthanized and acute hippocampal slices were collected and assessed for changes in long-term potentiation (LTP).

EAAT2 = EAAT2 protein levels in brains of wild-type C57BL/6 mice by Western blot; format: in vivo; settings: oral 0.01-100 mg/kg/day for seven or 28 days
Method: Mice then were euthanized and brains were harvested for examining EAAT2 protein levels by Western blot analysis.
Wild-type C57BL/6 mice (2-3 months old) were treated orally with compound 101 at 0.01, 0.033, 0.1, 0.33, 1, 3.33, 10, 20, 40, 60, and 100 mg/kg/day (voluntary ingestion of compound in honey) for seven or 28 days. Mice then were euthanized and brains were harvested for examining EAAT2 protein levels by Western blot analysis. […] To determine the functional consequences of the increased EAAT2 to the synaptic plasticity, wild-type mice were treated with vehicle or compound 101 at 0.033, 0.33, and 3.3 mg/kg for seven days. Mice were then euthanized and acute hippocampal slices were collected and assessed for changes in long-term potentiation (LTP).

| Compound | Fold increase for EAAT2 at indicated concentration (maximum activity) (human EAAT2) [fold] | concentration that reaches maximum activity (human EAAT2) [µM] | CA1 field potential responses to stimulation of CA3 afferents (LTP) [1] | EAAT2 protein levels in mouse brains (EAAT2) |
| --- | --- | --- | --- | --- |
| CNC(=O)CCn1nc(-c2ccccn2)ccc1=O [Compound 123, N-Methyl-3-(6-oxo-3-(pyridin-2-yl)pyridazin-1(6H)-yl)propanamide] | 2.5 ± 0.2 | 0.3 |  |  |
| CN(C)CCn1cc(-c2ccccn2)ncc1=O [Compound 214, 1-(2-(Dimethylamino)ethyl)-5-(pyridin-2-yl)pyrazin-2(1H)-one hydrochloride] | 1.5 ± 0.1 | 2.5 |  |  |
| Cc1cc(-c2ccccn2)nn(CCN(C)C)c1=O [Compound 195, 2-(2-(Dimethylamino)ethyl)-4-methyl-6-(pyridin-2-yl)pyridazin-3(2H)-one hydrochloride] | 2.5 ± 0.2 | 0.3 |  |  |
| O=c1ccc(-c2ccccn2)nn1Cc1ncco1 [Compound 146, 2-(Oxazol-2-ylmethyl)-6-(pyridin-2-yl)pyridazin-3(2H)-one] | 2.6 ± 0.2 | 2.5 |  |  |
| Cc1cc(=O)n(CCN(C)C)nc1-c1ccccn1 [Compound 196, N,N-2-(2-(dimethylamino)ethyl)-5-methyl-6-(pyridin-2-yl)pyridazin-3(2H)-one hydrochloride] | 4.2 ± 0.2 | 0.6 |  |  |
| COc1ccc(-c2ccc(=O)n(CCN(C)C)n2)cc1 [Compound 208, 2-(2-(Dimethylamino)ethyl)-6-(4-methoxyphenyl)pyridazin-3(2H)-one hydrochloride] | 1.7 ± 0.2 | 0.3 |  |  |
| COc1ccccc1-c1ccc(=O)n(CCN(C)C)n1 [Compound 206, 2-(2-(Dimethylamino)ethyl)-6-(2-methoxyphenyl)pyridazin-3(2H)-one hydrochloride] | 2.4 ± 0.1 | 0.15 |  |  |
| CC(c1ccccn1)n1nc(-c2ccccn2)ccc1=O (stereo not shown) [Compound 198, 6-(Pyridin-2-yl)-2-(1-(pyridin-2-yl)ethyl)pyridazin-3(2H)-one] | 2.0 ± 0.3 | 0.15 |  |  |
| CN(C)CCCn1nc(-c2ccccn2)ccc1=O [Compound 166, 2-(3-(Dimethylamino)propyl)-6-(pyridin-2-yl)pyridazin-3(2H)-one hydrochloride] | 2.0 ± 0.2 | 0.3 |  |  |
| CN(CCn1nc(-c2ccccn2)ccc1=O)c1ccccc1 [Compound 110, 2-(2-(Methyl(phenyl)amino)ethyl)-6-(pyridin-2-yl)pyridazin-3(2H)-one] | 2.3 ± 0.3 | 0.6 |  |  |
| COCCn1nc(-c2ccccn2)ccc1=O [Compound 172, 2-(2-Methoxyethyl)-6-(pyridin-2-yl)pyridazin-3(2H)-one] | 2.9 ± 0.1 | 0.3 |  |  |
| CN(C)CCOc1ccccc1NC(=O)Cn1nc(-c2ccccn2)ccc1=O [Compound 203, N-(2-(2-(Dimethylamino)ethoxy)phenyl)-2-(6-oxo-3-(pyridin-2-yl)pyridazin-1(6H)-yl)acetamide] | 2.0 ± 0.2 | 0.6 |  |  |
| CNCCn1nc(-c2ccccn2)ccc1=O [Compound 101, 2-(2-(Methylamino)ethyl)-6-(pyridin-2-yl)pyridazin-3(2H)-one hydrochloride] | 2.6 ± 0.2 | 0.3 | significantly increased responses | dose-dependently increased |
| Cn1ccnc1Cn1nc(-c2ccccn2)ccc1=O [Compound 201] | 2.5 ± 0.4 | 0.6 |  |  |
| CN(C)CCn1cc(-c2ccccn2)ccc1=O [Compound 213, 1′-(2-(Dimethylamino)ethyl)-[2,3′-bipyridin]-6′(1′H)-one hydrochloride] | 2.3 ± 0.1 | 0.6 |  |  |
| NCCn1nc(-c2ccccn2)ccc1=O [Compound 102, 2-(2-Aminoethyl)-6-(pyridin-2-yl)pyridazin-3(2H)-one hydrochloride] | 2.8 ± 0.3 | 1.25 |  |  |
| O=C1CCCN1CCn1nc(-c2ccccn2)ccc1=O [Compound 133, 2-(2-(2-Oxopyrrolidin-1-yl)ethyl)-6-(pyridin-2-yl)pyridazin-3(2H)-one] | 1.9 ± 0.3 | 2.5 |  |  |
| O=c1ccc(-c2ccccn2)nn1CCN1CCOCC1 [Compound 126, 2-(2-Morpholinoethyl)-6-(pyridin-2-yl)pyridazin-3(2H)-one hydrochloride] | 2.2 ± 0.5 | 0.3 |  |  |
| COc1cccc(-c2ccc(=O)n(CCN(C)C)n2)c1 [Compound 207, 2-(2-(Dimethylamino)ethyl)-6-(3-methoxyphenyl)pyridazin-3(2H)-one hydrochloride] | 3.5 ± 0.3 | 0.15 |  |  |
